Measured values: PubChem BioAssay (NCI)
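Compound exposure: 48 hours, 5 concentrations, 96-well plates. The concentration for full growth arrest is given as TGI.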

What was measured:
Assay in all cases: DTP human tumour cell line panel, 48 h
[1] = tested on: HCT-116 colon
[2] = tested on: SNB-78 CNS
[3] = tested on: RPMI-8226 leukemia
[4] = tested on: HCT-15 colon
[5] = tested on: KM12 colon
[6] = tested on: HL-60(TB) leukemia
[7] = tested on: LXFL 529 NSCLC
[8] = tested on: SW-620 colon
[9] = tested on: DU-145 prostate
[10] = tested on: PC-3 prostate
[11] = tested on: MDA-MB-435

SMILES	TGI [1]	TGI [2]	TGI [3]	TGI [4]	TGI [5]	TGI [6]	TGI [7]	TGI [8]	TGI [9]	TGI [10]	TGI [11]
COC(OC)c1cccc2c1C1(O)CCC3(CC21)OCCCCO3 (configuration not stated)	> 100 µM	> 100 µM	> 100 µM	> 100 µM	> 100 µM	> 100 µM	> 100 µM				
NC(=O)CCC(NCc1c2ccccc2[n+]([O-])c2ccccc12)C(=O)O (configuration not stated)	> 100 µM	> 100 µM	> 100 µM	> 100 µM	> 100 µM	74.1 µM	> 100 µM	> 100 µM			
Cc1ccc(C(=O)C(C)N)cc1 (configuration not stated)	> 100 µM	> 100 µM	> 100 µM	> 100 µM	> 100 µM	> 100 µM	> 100 µM	> 100 µM			
O=P(O)(O)C(CSc1ccccc1)P(=O)(O)O	> 100 µM	> 100 µM	> 100 µM	> 100 µM	> 100 µM	> 100 µM		> 100 µM			
CC(=O)c1ccc(Oc2ccc(/C(C)=N\N=C(N)N)cc2)cc1	13 µM	16.6 µM	8.7 µM	13.2 µM			17.4 µM				
CC1(O)CC2C(CC1SCCO)C2(C)C (configuration not stated)	> 100 µM	> 100 µM	> 100 µM	> 100 µM	> 100 µM	> 100 µM	> 100 µM				
C=C1c2c(cc3c(c2O)c(=O)c2ccccc2n3C)OC1(C)C		> 100 µM	> 100 µM	> 100 µM		> 100 µM	> 100 µM	> 100 µM			
O=C(NO)c1coc2ccccc2c1=O		> 100 µM	> 100 µM	> 100 µM	> 100 µM	> 100 µM	> 100 µM	> 100 µM			
CC(C)(C)[Si](C)(C)OCCCC#CCO		> 100 µM	> 100 µM	> 100 µM	> 100 µM	70.9 µM	> 100 µM	> 100 µM			
Cc1c(-c2cc3n(n2)C(c2cccs2)C(C#N)=C(c2ccccc2)N3)c(=O)n(-c2ccccc2)n1C (configuration not stated)	> 100 µM	> 100 µM		> 100 µM	> 100 µM	> 100 µM		> 100 µM			
COc1ccc(C2SCC(=O)N2c2ccc(-c3ccc(-n4c(-c5ccccc5)nc5ccccc5c4=O)cc3)cc2)cc1 (configuration not stated)	> 100 µM		> 100 µM	> 100 µM	79.8 µM	> 100 µM		> 100 µM	> 100 µM	> 100 µM	> 100 µM
